Counter-ions that a name gives are not always drawn.
Tests used:
[1] = molecular target: human mPGES-1 (Homo sapiens (Human), UniProt O14684); experiment: mPGES-1 inhibiting activity (microsome fractions, PGE2 by HTRF); format: biochemical; settings: microsomes from CHO-K1 cells transfected with human mPGES-1; PGH2 1 μM, 4° C., 60 seconds; read-out: mPGES-1 Inhibition IC50
Protocol: mPGES-1 microsome fractions were prepared from CHO-K1 cells transiently transfected with plasmid encoding the human mPGES-1cDNA. Microsomes were diluted with potassium phosphate buffer containing reduced glutathione (pH7.4), and DMSO containing test compound or DMSO alone was added (such that DMSO final concentration would be 1% in each) and incubated at 4° C. for 20 minutes. Then, the enzymatic reactions were initiated by the addition of PGH2 substrate (final concentration 1 μM) and incubated at 4° C. for 60 seconds. The reaction was terminated by the addition of a citrate solution (final citrate concentration 50 mM) containing ferric chloride (final concentration 1 mg/mL). PGE2 production in the enzyme reaction aliquot was measured using HTRF kit (Cisbio International, catalogue #62P2APEC). The solution free of test compound was used as positive control, and the solution free of test compound and microsome sample was used as negative control. 100% activity was defined as PGE2 production in the positive control minus PGE2 production in negative control. IC50 value was calculated by standard method.

[2] = tested on: A549 cells; experiment: Inhibition of PGE2 production in A549 cell (IL-1β stimulated); format: cell-based, human; settings: Homo sapiens, A549, 24 h, IL-1β 5 ng/well, PGE2 in culture medium
Protocol: Human A549 cells were seeded onto a 96-well plate at 2×10^4 cells/100 μL per well and allowed to incubate overnight. After removing the culture medium and washing with phosphate buffered saline, the culture medium was replaced by RPMI culture medium with 3% FBS containing a DMSO solution containing test compound or DMSO alone (such that DMSO final concentration would be […] in each). After incubation for 60 minutes, IL-1β (5 ng/well) was added and incubated at 37° C. for 24 hours. Then, PGE2 in the culture medium was measured using HTRF kit (Cisbio International, catalogue #62P2APEC), and PGF2α in the culture medium was measured using EIA kit (Cayman Chemical Company, catalogue #516011). The solution free of test compound was used as positive control, and the solution free of test compound and IL-1β was used as negative control. 100% activity was defined as PGE2 and PGF2α production in the positive control minus PGE2 and PGF2α production in the negative control. IC50 value was calculated by standard method.

human mPGES-1, sequence (O14684 whole entry): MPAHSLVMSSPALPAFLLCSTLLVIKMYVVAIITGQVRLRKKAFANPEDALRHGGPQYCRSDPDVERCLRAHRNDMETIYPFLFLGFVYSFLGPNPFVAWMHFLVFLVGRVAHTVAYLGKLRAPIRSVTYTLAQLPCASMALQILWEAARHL

SMILES | IC50 [1] [nM] | IC50 [2] [nM]
COCc1nc2c(C(=O)Nc3ccccc3OC)cc(NC(=O)c3ccccc3C(F)(F)F)cc2[nH]1 [Example 36, 2-(Methoxymethyl)-N-(2-methoxyphenyl)-6-({[2-(trifluoromethyl)phenyl]carbonyl}amino)-1H-benzimidazole-4-carboxamide] | 147 | 234
COCc1nc2c(C(=O)NCc3ncccc3C(F)(F)F)cc(NC(=O)c3ccccc3C(F)(F)F)cc2[nH]1 [Example 42, 2-(Methoxymethyl)-6-({[2-(trifluoromethyl)phenyl]carbonyl}amino)-N-{[3-(trifluoromethyl)pyridin-2-yl]methyl}-1H-benzimidazole-4-carboxamide dihydrochloride] | 28.5 | 1860
CCCNC(=O)c1cc(NC(=O)c2ccccc2C(F)(F)F)cc2[nH]c(COC)nc12 [Example 215, 2-(Methoxymethyl)-N-propyl-6-({[2-(trifluoromethyl)phenyl]carbonyl}amino)-1H-benzimidazole-4-carboxamide hydrochloride] | 140 | 772
O=C(Nc1cc(C(=O)NC2CCCCC2)c2nc[nH]c2c1)c1ccccc1C(F)(F)F [Example 2, N-Cyclohexyl-6-({[2-(trifluoromethyl)phenyl]carbonyl}amino)-1H-benzimidazole-4-carboxamide] | 7.6 | 240
COCc1nc2c(C(=O)Nc3cccc(Cl)c3C)cc(NC(=O)c3cc(Br)ccc3Cl)cc2[nH]1 [Example 106, 6-{[(5-Bromo-2-chlorophenyl)carbonyl]amino}-N-(3-chloro-2-methylphenyl)-2-(methoxymethyl)-1H-benzimidazole-4-carboxamide hydrochloride] | 4.5 | 63.8
COCc1nc2c(C(=O)Nc3nc4ccc(Cl)cc4o3)cc(NC(=O)c3ccccc3C(F)(F)F)cc2[nH]1 [Example 233, N-(6-Chloro-1,3-benzoxazol-2-yl)-2-(methoxymethyl)-6-({[2-(trifluoromethyl)phenyl]carbonyl}amino)-1H-benzimidazole-4-carboxamide hydrochloride] | 2.5 | 195
CCc1nc2c(C(=O)Nc3cccc(Cl)c3C)cc(NC(=O)c3ccccc3C(F)(F)F)cc2[nH]1 [Example 17, N-(3-Chloro-2-methylphenyl)-2-ethyl-6-({[2-(trifluoromethyl)phenyl]carbonyl}amino)-1H-benzimidazole-4-carboxamide] | 9.8 | 21.6
COCc1nc2c(C(=O)Nc3cccc(Cl)c3C)cc(NC(=O)c3cc(CCc4ccccc4)ccc3Cl)cc2[nH]1 [Example 123, N-(3-Chloro-2-methylphenyl)-6-({[2-chloro-5-(2-phenylethyl)phenyl]carbonyl}amino)-2-(methoxymethyl)-1H-benzimidazole-4-carboxamide hydrochloride] | 8.7 | 99.8
CCCCOc1ccc(Cl)c(C(=O)Nc2cc(C(=O)Nc3cccc(Cl)c3C)c3nc(COC)[nH]c3c2)c1 [Example 247, 6-{[(5-Butoxy-2-chlorophenyl)carbonyl]amino}-N-(3-chloro-2-methylphenyl)-2-(methoxymethyl)-1H-benzimidazole-4-carboxamide hydrochloride] | 68.4 | 55
Cc1nc2c(C(=O)NC3CCCC3)cc(NC(=O)c3ccccc3C(F)(F)F)cc2[nH]1 [Example 15, N-Cyclopentyl-2-methyl-6-({[2-(trifluoromethyl)phenyl]carbonyl}amino)-1H-benzimidazole-4-carboxamide] | 37.4 | 465
COCc1nc2c(C(=O)Nc3ccc(C)cc3)cc(NC(=O)c3ccccc3C(F)(F)F)cc2[nH]1 [Example 23, 2-(Methoxymethyl)-N-(4-methylphenyl)-6-({[2-(trifluoromethyl)phenyl]carbonyl}amino)-1H-benzimidazole-4-carboxamide hydrochloride] | 7.2 | 116
Cc1c(Cl)cccc1NC(=O)c1cc(NC(=O)c2ccccc2C(F)(F)F)cc2[nH]c(C(C)(C)C)nc12 [Example 76, 2-tert-Butyl-N-(3-chloro-2-methylphenyl)-6-({[2-(trifluoromethyl)phenyl]carbonyl}amino)-1H-benzimidazole-4-carboxamide hydrochloride] | 0.2 | 5.5
COCc1nc2c(C(=O)Nc3cccc(Cl)c3C)cc(NC(=O)c3ccccc3C(F)(F)F)cc2n1C [Example 90, N-(3-Chloro-2-methylphenyl)-2-(methoxymethyl)-1-methyl-6-({[2-(trifluoromethyl)phenyl]carbonyl}amino)-1H-benzimidazole-4-carboxamide] | 118 | 348
Cc1c(Cl)cccc1NC(=O)c1cc(NC(=O)c2ccccc2C(F)(F)F)cc2[nH]c(CC(C)(C)C)nc12 [Example 82, N-(3-Chloro-2-methylphenyl)-2-(2,2-dimethylpropyl)-6-({[2-(trifluoromethyl)phenyl]carbonyl}amino)-1H-benzimidazole-4-carboxamide hydrochloride] | 0.4 | 6.3
Cc1c(Cl)cccc1NC(=O)c1cc(NC(=O)c2ccccc2C(F)(F)F)cc2[nH]c(N(C)C)nc12 [Example 145, N-(3-Chloro-2-methylphenyl)-2-(dimethylamino)-6-({[2-(trifluoromethyl)phenyl]carbonyl}amino)-1H-benzimidazole-4-carboxamide hydrochloride] | 1.6 | 13
CCc1nc2c(C(=O)Nc3cccc(Cl)c3C)cc(NC(=O)c3ccccc3C(F)(F)F)cc2o1 [Example 54, N-(3-Chloro-2-methylphenyl)-2-ethyl-6-({[2-(trifluoromethyl)phenyl]carbonyl}amino)-1,3-benzoxazole-4-carboxamide] | 23.2 | 225
Cc1c(Cl)cccc1NC(=O)c1cc(NC(=O)c2c(F)cccc2Cl)cc2[nH]c(NC[C@@H]3CCCO3)nc12 [Example 198, 6-{[(2-Chloro-6-fluorophenyl)-carbonyl]amino}-N-(3-chloro-2-methylphenyl)-2-{[(2S)-tetrahydrofuran-2-ylmethyl]amino}-1H-benzimidazole-4-carboxamide hydrochloride] | 6 | 34.1
COCc1nc2c(C(=O)Nc3cccc(Br)c3C)cc(NC(=O)c3ccccc3C(F)(F)F)cc2[nH]1 [Example 38, N-(3-Bromo-2-methylphenyl)-2-(methoxymethyl)-6-({[2-(trifluoromethyl)phenyl]carbonyl}amino)-1H-benzimidazole-4-carboxamide] | 6.6 | 17.4
Cc1c(Cl)cccc1NC(=O)c1cc(NC(=O)c2ccccc2C(F)(F)F)cc2[nH]c(S(C)(=O)=O)nc12 [Example 180, N-(3-Chloro-2-methylphenyl)-2-(methylsulfonyl)-6-({[2-(trifluoromethyl)phenyl]carbonyl}amino)-1H-benzimidazole-4-carboxamide] | 1.1 | 774
COC(C)(C)CNc1nc2c(C(=O)Nc3cccc(Cl)c3C)cc(NC(=O)c3cc(Cl)ccc3Cl)cc2[nH]1 [Example 192, N-(3-Chloro-2-methylphenyl)-6-{[(2,5-dichlorophenyl)carbonyl]amino}-2-[(2-methoxy-2-methylpropyl)amino]-1H-benzimidazole-4-carboxamide hydrochloride] | 9.9 | 18.1

— patent US9216968B2, “Heterocyclic derivative and pharmaceutical drug” (NIPPON SHINYAKU CO., LTD., priority 2011, dated 2015)
